# Results reported in patent US20220401428A1, “Method for Treatment of Alzheimer's Disease” (University of Kentucky Research Foundation, priority 2019, published 2022).
# What was measured:
# ADHIP rats [1] = test: Histology and immunohistochemistry of brains of sEHi-treated ADHIP rats; type: in vivo, rat; settings: treated vs untreated; for extent of axonal degeneration: MBP and LFB staining; for amylin deposition in brain capillaries: immunohistochemical analysis
# Protocol: (§1) Pharmacological treatment on animals To increase plasma eicosanoids levels, the animals were treated with TPPU (1-Trifluoromethoxyphenyl-3-(1-propionylpiperidin-4-yl) urea, N-[1-(1-Oxopropyl)-4-piperidinyl]-N′-[4-(trifluoromethoxy)phenyl]-urea), a soluble epoxide hydrolase inhibitor (sEHi) (HY-101294, MedChem Express). […] 12 months old (n=5; early-stage) and 16 months old (n=6; late stage) animals were subjected to treatment with sEHi. For treatment at early-stage, the drug was administered through drinking water (3 mg/L, daily) and intravenous injection (20 μg/kg, once a week) to ensure equal intake for each animal. For treatment at late-stage, the drug was administered through and intravenous injection (20 μg/kg, daily, 1 month) and then through drinking water (3 mg/L, daily, 1 month). Amount of water intake was measured daily.
# Histology and demyelination scoring Myelination in rat brains was analyzed by staining with Luxol fast blue (LFB) dye. Scoring analysis method was performed as described previously^15. Microhemorrhages in rat brains were stained with Prussian blue dye and analyzed as described previously^15. Congo red staining was performed on the human brains as previously^11 described.
# Immunohistochemistry. Formalin fixed, paraffin embedded brain and pancreas tissues from humans, ADHIP, AD, WT, and AD-AKO rats were used. Tissues were processed as previously described^11,14,15,27. After tissue rehydration, the endogenous peroxidase was quenched in 3% H2O2 in methanol for 30 minutes. For amylin and Aβ antigen retrieval, sections were treated with 100% formic acid for 5 minutes, followed by 0.5% pepsin digestion in 5 mM HCl for 20 minutes at 37° C. To retrieve intra-neuronal amylin antigen (rat brains) as well as other antigens, tissue sections were heated in citrate buffer for 30 minutes. Non-specific antibody binding was blocked by 15% horse serum for 1 hour at room temperature (RT). Primary antibodies against amylin, human Aβ, Iba1, CD68 or myelin basic protein (MBP) was incubated on slides overnight at 4° C. Sections were then washed and incubated with secondary antibodies. Signal was developed with DAB or AEC peroxidase substrate. For co-staining with two antibodies, after the signal was developed for the first antibody, sections were then rinsed in water. Non-specific antibody binding was blocked with 10% normal goat serum, and the sections were incubated with the second primary antibody overnight at 4° C. Sections were then washed and incubated with AP-conjugated secondary antibody, and developed with StayGreen/AP chromogen substrate. Sections were mounted with aqueous mounting medium. The specificity of the amylin antibody in both human and rat brain tissues was established in previous studies^11,14,15,27.
# Imaging analysis Wide-field images of stained tissue sections were generated by stitching images obtained from the 10× objective lens (Nikon NIS-Element Software). Higher magnification images for specific tissue area were obtained using the 40× objective lens. The immunoreactivity signal for each antibody was analyzed by ImageJ. Clearly defined-signal pixels were selected to establish the RGB profile of the color of interest. The threshold for each color signal was adjusted to reduce background noise. The established RGB profile and threshold were applied to a Macro script command, using Color Deconvolution plugin in ImageJ. The staining area was calculated using the following equation: […]
# ADHIP rats [2] = test: Behavior testing of sEHi-treated ADHIP rats (composite z-score); type: in vivo, rat; settings: late stage (>16 months old) and early stage (12 months old) cohorts, treated vs untreated
# Protocol: as §1, with “For treatment at late-stage, the drug was administered through and intravenous injection (20 μg/kg, daily, 1 month) and then through drinking water (3 mg/L, daily, 1 month).” left out
# Behavior testing Forelimb use test/Cylinder test, inclined plane, hind limb clasping test. […] Animal forelimb deficit was evaluated by forelimb-to-wall contact time in cylinder test. […] Abnormalities in the animal hind limbs were assessed by scoring the severity of hind limb clasping.
# Rotarod assessment Motor coordination and balance were tested by the rotarod (Rotamex 5, Columbus Instrument, OH) test^27. […] The remaining read-outs were averaged, and a group average was calculated for each genotype. […]
# Morris Water Maze Spatial learning and long-term memory retention were tested in a 1.5 m diameter Morris Water Maze, as previously described^15. […] Trials were recorded by EthoVision XT software (Noldus, VA). […]
# [3] = reference 24; cited from earlier work
# ADHIP rats [4] = test: Hypoxia markers in brain and brain capillary lysates of sEHi-treated ADHIP rats; type: in vivo, rat; settings: treated vs untreated, HIF-1α, HIF-2α, Arg-1, Arg-2, arginase activity, mitochondrial DNA
# Protocol: as §1, with “For treatment at late-stage, the drug was administered through and intravenous injection (20 μg/kg, daily, 1 month) and then through drinking water (3 mg/L, daily, 1 month).” left out, “daily. […]” for “daily.”
# Enzyme-linked immune absorbance assay (ELISA) Levels of amylin in human brain samples were measured using sandwich amylin ELISA from Millipore (EZHA-52K). Levels of amylin in human CSF and animal samples were measured using amylin sandwich ELISA from R&D system (EIA-AMY). Aβ levels in animal CSF were measured using high sensitivity electrochemiluminescence ELISA (MSD 6E10, K15200G-2, Meso Scale Discovery). […]
# Arginase activity Arginase activity in rat brain capillaries were measured using arginase activity kit (MAK112, Sigma). […]
# Mitochondria DNA extraction and analysis Protocol for quantifying mitochondrial DNA content was described in Ref 32. […] DNA purity was assessed by ensuring the A260/A280 ratio was >1.8. […]
# LRP1 = LRP1 protein expression in rat brain microvascular ECs (Western blot, immunofluorescence); type: cell-based
# Text: To study the role of miRNA signaling in amylin-induced suppression of endothelial LRP1 expression, transfection of rat brain microvascular ECs was used with miR-103-3p (MCR01039)[…](SEQ ID NO: 5), miR-107-3p (MCR01045)[…](SEQ ID NO: 6) and control (MCH00000) (https://www.abmgood.com/mirna-mimic-negative-control-mch00000.html). Antagomir miR-103-3p (IH-320345-05-0005)(SEQ ID NO: 5), miR-107-3p (IH-320348-05-0005)(SEQ ID NO: 6) and negative control (IN-001005-01-05) (https://www.biocompare.com/22445-RNA/4995709-miRIDIAN-microRNA-Hairpin-Inhibitor-Negative-Control-1-5-nmol/#productspecs) (Dharmacon Inc.) were used in an attempt to rescue LRP1 expression. All transfections were done using RNAiMAX (Invitrogen) as per manufacturer's recommended protocol. Briefly, ECs were plated at 50% confluency in 6-well plates followed by co-transfection with either 100 nM of 103-3p and 107-3p mimics or antagomirs along with their respective negative controls. After 12-hours, antagomir-treated cell groups were further treated with 10 uM human amylin for 24-hours. After 36-hours of transfection, cells were harvested for Western blot analysis.
# In immunofluorescence experiments, formalin-fixed, paraffin-embedded human brain tissue was used and processed as previously described^16,18,39, brain capillaries from HIP and WT rats isolated as previously described^18. and cultured ECs. Anti-amylin (1:200; clone E5; SC-377530; Santa Cruz), anti-collagen IV (1:500; ab6586; abcam), anti-alpha smooth muscle actin-Alexa Fluor 405 (1:200; ab210128, abcam), anti-caveolin-1 (1:100; sc-894; Santa Cruz, Tex.), anti-LRP1 (1:500; sc-57351; Santa Cruz), anti-4HNE (1:200; ab46545; abcam) were the primary antibodies. Secondary antibodies were: Alexa Fluor 488 conjugated anti-mouse IgG (1:300; A11029; Invitrogen), Alexa Fluor 568 conjugated anti-rabbit IgG (1:200; A11036; Invitrogen), Alexa Fluor 568 conjugated anti-mouse IgG (1:300; A11004; Invitrogen). Nuclei were counterstained with DAPI mounting media. For triple staining of human brain tissues, smooth muscle actin-Alexa Fluor 405 antibody was added after staining with human amylin and collagen IV; DAPI free mounting media was used. For Thioflavin S staining, after secondary antibody incubation, brain slides were incubated in 0.5% Thioflavin S for 30 minutes at room temperature. Slides were then incubated for 3 minutes in 70% ethanol, 5 minutes in 0.2% Sudan black before washing and mounting. Immunocytochemistry was performed as described previously (39, 40).
# Western blot analysis was performed on isolated brain capillaries, brain tissue homogenate and plasma from rats. Tissues were processed as described previously^16,18,28,39. RIPA buffer with 2% SDS was used to retrieve Aβ monomers from frozen brain samples^41. […]
# [5] = listed as inhibitor of soluble epoxide hydrolase (sEH)
compound,measurement,setting,value
"CCC(=O)N1CCC(NC(=O)Nc2ccc(OC(F)(F)F)cc2)CC1 [sEHi, 1-(1-propanoylpiperidin-4-yl)-3-[4-(trifluoromethoxy)phenyl]urea]",extent of axonal degeneration,ADHIP rats [1],ameliorated
same,extent of axonal degeneration,ADHIP rats [1]; [5],reduced
same,number of brain microhemorrhages,ADHIP rats [1]; Prussian blue,reduced
same,amylin deposition in brain capillaries,ADHIP rats [1],reduced capillary amylin deposition
same,amylin deposition in brain capillaries,ADHIP rats [1]; [5],reduced amylin deposition in brain capillaries
same,behavior deficits,ADHIP rats [2],attenuation of functional decline
same,behavior deficits,ADHIP rats [2]; [5],reduced behavior deficits
same,level of circulating amylin,[3],lower the level of circulating amylin
same,brain accumulation of hypoxia markers,ADHIP rats [4],lowered brain accumulation of hypoxia markers
"miR-103 and miR-107 mimics: co-transfected miRNA mimics miR-103-3p (SEQ ID NO: 5) and miR-107-3p (SEQ ID NO: 6) (chain 1 AGCAGCAUUGUACAGGGCUAUGA; chain 2 AGCUUCUUUACAGUGUUGCCUUGU; listed as RNA, chemistry not given here)",average LRP1 expression level,"LRP1; ECs co-transfected with 100 nM mimics, 24 hours, vs miR-control, Western blot",lower
rat amylin,LRP1 protein levels,"LRP1; ECs, 10 μM, 24-hour incubation, confocal microscopy and Western blot",no effect
